In patent US5583142A, “Analgesic and nootropic drugs” (priority 1992, dated 1996):
Several values for one entry are separate records, joined by “and”; a condition that tells them apart may be missing. Identical values can stand only once. Like-named read-outs stand apart in the source and are kept apart here.

Assays:
[1] = rat tail-flick test; type: in vivo; details: for tail-flick: 20 mg/kg i.p.
Description: (§1) The analgesic action was detected in mouse, rat, guinea pig and dog. The mouse was subjected to hot plate and writhing tests; the rat to tail-flick and paw-pressure tests; the guinea pig to paw-pressure test only; the dog to the test described by Vainio et al. [J. Vet. Pharmacol. Ther., 12, 225-231 (1989)] using an electric stimulation. Consequently, the claimed compounds were tested with pain being induced by stimuli of different nature: thermal (hot plate and tail flick), chemical (writhing by acetic acid), mechanical (paw pressure) and electrical (cutaneous stimulation).
(§2) As already mentioned, the claimed products were assayed also in rat by the paw-pressure and tail-flick tests.
(§3) Both tests were carried out with the max. doses not impairing the rats normal behaviour. […] The painful stimulus utilized in the paw-pressure test involved the animal consciousness to a much greater extent than the stimulus used in the tail-flick test, in fact, the type and anatomic localization of the latter mainly involved a spinal response.
(§4) Both tests on rats were carried out with the max. doses not altering the behaviour of the treated animals.
The test was performed using th

[2] = mouse rota-rod test (16 r.p.m.)
Source text: All products tested to detect their antinociceptive activity had been previously tested by the rota-rod test to determine their maximum utilizable dose in analgesic tests. In fact, by this test it is possible to determine the highest dose of drug not impairing the normal performance of animals in a test that simultaneously evaluates motor coordination, equilibrium, resistance to fatigue, and muscle strength. This test is meant to evaluate the capability of mice to stay balanced on a rotating rod [cf. Vaught et al., Neuropharmacology, 24 (3) 211-216 (1985)].
The calculated doses were those used in the two analgesic tests on mice.

[3] = type: in vivo, mouse; details: for ANALGESIC ACTIVITY (degree of analgesia, latency on hot plate): max. dose not affecting mice behaviour
Description: as §1
(§5) Potency, efficacy and toxicity of SM21, PG9 and SM32 in comparison with
(§6) four principal reference analgesic drugs tested in mouse. As analgesic

[4] = in vivo; details: mouse, sc
Source text: as §5, §6

[5] = rat paw-pressure test; type: in vivo; details: for paw-pressure: 20 mg/kg i.p.
Description: as §1, §2, §3, §4

[6] = mouse acetic acid writhing test; type: in vivo; details: for efficacy in writhing test, in words / number of writhes / Efficacy as analgesic (Morphine = 100) / percent inhibition: mouse; for Efficacy as analgesic (Morphine = 100) / percent inhibition: writhing; for ED50: sc, mouse writhing
Description: as §1
The claimed molecules, chosen as examples, were also assayed in mice by the writhing test (Table 4). The test is meant to evaluate the products capability to prevent mice writhes ensuing abdominal pains caused by i.p. injection of a 0.6% aqueous solution of acetic acid.
Acetic acid solution = 0.6% v/v.

[7] = guinea-pig paw-pressure test; type: in vivo; details: for paw-pressure: guinea-pig, 20 mg/kg i.p.
Description: as §1
Effect of SM21 and PG9 in guineapig pawpressure test. *P < 0.01; P < 0.0
in comparison with saline controls. The number of guineapig is in […]

[8] = 40 mg/kg s.c., 15 min after treatment
[9] = 40 mg/kg s.c., 30 min after treatment
[10] = 40 mg/kg s.c., 45 min after treatment
[11] = 45 mg/kg s.c., 15 min after treatment
[12] = 45 mg/kg s.c., 30 min after treatment
[13] = 45 mg/kg s.c., 45 min after treatment
[14] = 50 mg/kg s.c., 15 min after treatment
[15] = 50 mg/kg s.c., 30 min after treatment
[16] = 50 mg/kg s.c., 45 min after treatment

SMILES	activity in tail-flick test, in words [1]	tail-flick ([1]; 15 min after treatment) [s]	tail-flick ([1]; 30 min after treatment) [s]	tail-flick ([1]; 45 min after treatment) [s]	rota-rod performance (number of falls in 30 s) [2, 8] [falls in 30 s]	rota-rod performance (number of falls in 30 s) [2, 9] [falls in 30 s]	rota-rod performance (number of falls in 30 s) [2, 10] [falls in 30 s]	rota-rod performance (number of falls in 30 s) [2, 11] [falls in 30 s]	rota-rod performance (number of falls in 30 s) [2, 12] [falls in 30 s]	rota-rod performance (number of falls in 30 s) [2, 13] [falls in 30 s]	rota-rod performance (number of falls in 30 s) [2, 14] [falls in 30 s]	rota-rod performance (number of falls in 30 s) [2, 15] [falls in 30 s]	rota-rod performance (number of falls in 30 s) [2, 16] [falls in 30 s]	ANALGESIC ACTIVITY (degree of analgesia, latency on hot plate) [3]	Efficacy as analgesic (Morphine = 100), AUC (Area Under Curve) ([3]; mouse, in vivo)	Efficacy as analgesic (Morphine = 100), M.E. (Maximum Analgesic Effect) ([3]; mouse, in vivo)	LD50 [4] [µmol/kg]	activity in paw-pressure test, in words [5]	paw-pressure ([5]; 15 min after treatment) [g]	paw-pressure ([5]; 30 min after treatment) [g]	further results
CCC(Sc1ccccc1)C(=O)O[C@H]1C[C@H]2CC[C@@H](C1)N2C (stereo partly drawn) [SM-32, 3α-Tropanyl 2-(phenylthio)-butyrate]	active	3.1 ± 0.5	4.7 ± 0.6	4.3 ± 0.5	1.2 ± 0.6	1.4 ± 0.3	1.2 ± 0.4	2.0 ± 0.3	2.3 ± 0.3	2.0 ± 0.5	1.8 ± 0.4	2.6 ± 0.6	2.6 ± 0.5	++++ (Latency above 35" ++++-)	120	107	584	almost equivalent analgesia	86.2 ± 4.0	92.0 ± 6.1	analgesic effect (AUC up to 45 min) compared with reference compounds ([3]; mouse hot plate, FIG. 5, s.c.): more active than the reference compounds; analgesic effect (AUC up to 45 min) compared with morphine ([3]; mouse, in vivo, ip): only slightly less active than morphine; hot-plate latency ([3]; mouse, 35 mg/kg i.p., 15 min after treatment): 35.5 ± 3.0 s; hot-plate latency ([3]; mouse, 35 mg/kg i.p., 30 min after treatment): 33.5 ± 2.6 s; hot-plate latency ([3]; mouse, 35 mg/kg i.p., 45 min after treatment): 24.4 ± 1.9 s; hot-plate latency ([3]; mouse, 35 mg/kg s.c., 15 min after treatment): 38.7 ± 3.5 s; hot-plate latency ([3]; mouse, 35 mg/kg s.c., 30 min after treatment): 36.4 ± 3.2 s; hot-plate latency ([3]; mouse, 35 mg/kg s.c., 45 min after treatment): 25.7 ± 2.9 s; paw-pressure ([5]; 45 min after treatment): 69.0 ± 4.8 g; efficacy in writhing test, in words [6]: less efficacious than ketorolac, are more efficacious than morphine; number of writhes ([6]; 35 mg/kg s.c.): 5.5 ± 2.1; Efficacy as analgesic (Morphine = 100) ([6]; 35 mg/kg s.c.): 111; percent inhibition ([6]; 35 mg/kg s.c.): 83.4%; ED50 [6]: 15.9 mg/kg and 35.7 µmol/kg
CC(C(=O)O[C@H]1C[C@H]2CC[C@@H](C1)N2C)c1ccc(Br)cc1 (stereo partly drawn) [PG-9, 3α-Tropanyl 2-(p-bromophenyl)-propionate]	inactive	3.3 ± 0.2	2.9 ± 0.4	3.0 ± 0.3	1.2 ± 0.5	0.8 ± 0.4	1.3 ± 0.5	2.4 ± 0.8	1.3 ± 0.5	0.8 ± 0.4	2.2 ± 0.6	2.7 ± 0.6	2.8 ± 0.4	++++ (Latency above 35" ++++-)	123	106	373	inactive in rat	62.2 ± 6.0	62.4 ± 4.8	analgesic activity in mouse, in words ([3]; mouse): active in mouse; analgesic effect (AUC up to 45 min) compared with reference analgesics ([3]; mouse hot plate, FIG. 5, always (s.c. and i.p.)): always more active than all reference analgesics including morphine; hot-plate latency ([3]; mouse, 40 mg/kg i.p., 15 min after treatment): 42.5 ± 2.5 s; hot-plate latency ([3]; mouse, 40 mg/kg i.p., 30 min after treatment): 39.7 ± 2.1 s; hot-plate latency ([3]; mouse, 40 mg/kg i.p., 45 min after treatment): 26.7 ± 3.5 s; hot-plate latency ([3]; mouse, 40 mg/kg s.c., 15 min after treatment): 39.3 ± 3.4 s; hot-plate latency ([3]; mouse, 40 mg/kg s.c., 30 min after treatment): 35.1 ± 2.8 s; hot-plate latency ([3]; mouse, 40 mg/kg s.c., 45 min after treatment): 33.3 ± 2.6 s; analgesic activity in guinea pig, in words ([7]; guinea pig): active in guinea pig; paw-pressure ([7]; 15 min after treatment): 94.6 ± 4.4 g; paw-pressure ([7]; 30 min after treatment): 83.0 ± 6.8 g; paw-pressure ([7]; 45 min after treatment): 42.8 ± 5.6 g; paw-pressure ([5]; 45 min after treatment): 62.8 ± 4.2 g; efficacy in writhing test, in words [6]: less efficacious than ketorolac, are more efficacious than morphine; number of writhes ([6]; 40 mg/kg s.c.): 6.1 ± 1.6; Efficacy as analgesic (Morphine = 100) ([6]; 40 mg/kg s.c.): 110; percent inhibition ([6]; 40 mg/kg s.c.): 82.2%; ED50 [6]: 16.3 mg/kg and 34.8 µmol/kg
